The values below come from the NIST ThermoML archive (doi:10.1016/j.tca.2017.12.024).

Structures are written as SMILES. ± gives the expanded uncertainty stated by the source.

The conditions of series [1]: Crystal; DTA.
A short description of series [2]: Molar enthalpy of transition or fusion. The following applies: Crystal; DSC.

For `CCCCCCCCCC(=O)O` [decanoic acid], the Normal melting temperature in series [1] came to 32.00 ± 3 °C. The “Molar enthalpy of transition or fusion” value in series [2] worked out at 5.97 ± 1.2 kcal/mol.
For the molecule `CCCCCCCCCCCC(=O)O` [dodecanoic acid], the Normal melting temperature in series [1] was determined as 43.60 ± 3 °C. Also, the “Molar enthalpy of transition or fusion” value in series [2] amounted to 8.43 ± 1.67 kcal/mol.
For the molecule `CCCCCCCCCCCCCCCC(=O)O` [hexadecanoic acid], the Normal melting temperature in series [1] worked out at 61.70 ± 3 °C. Besides, the “Molar enthalpy of transition or fusion” value in series [2] worked out at 12.6 ± 2.63 kcal/mol.
In the case of `CCCCCCCCCCCCCCCCCC(=O)O` [octadecanoic acid], the Normal melting temperature in series [1] was 68.40 ± 3 °C. For the same molecule, the “Molar enthalpy of transition or fusion” value in series [2] worked out at 14.3 ± 2.87 kcal/mol.
With `CCCCCCCCCCCCCC(=O)O` [tetradecanoic acid], the Normal melting temperature in series [1] was 54.70 ± 3 °C. Also, the “Molar enthalpy of transition or fusion” value in series [2] stood at 10.2 ± 2.01 kcal/mol.
